Experimental data taken from patent publication US20060281806A1, “Treatment and inhibition of disease conditions using flexible heteroarotinoids” (priority 2005, published 2006).
“Also recorded” adds a separate entry of the source.

Key:
[1] = system: C33a human cervical cell line; assay: In vitro cytotoxicity (SRB growth inhibition) assay, C33a; type: cell-based; design: dose or concentration left out as unconfirmed; details: 72 h
Procedure: (§1) The SHetA2, SHetA3, SHetA4, SHet50 and 9-cis-RA compounds were evaluated in 4 cervical carcinoma cell lines. The SiHa, CC-1 and C33a human cervical cell lines were maintained in Minimal Essential Media (MEM) containing Earle's salts and L-glutamine supplemented with nonessential amino acids, 1% sodium pyruvate, 10% fetal bovine serum (FBS) and antibiotic/antimycotic. The HT-3 cervical carcinoma cell line was cultured in McCoy's 5a medium supplemented with 10% FBS and antibiotic/antimycotic. Cells were inoculated into 96 well microtiter plates at densities of 1000 cells/well and incubated for 24 h prior to addition of drugs. Drugs were dissolved in dimethyl sulfoxide (DMSO) and diluted in complete medium, prior to addition to triplicate culture wells to achieve final concentrations of […]. Following drug addition, the plates were incubated for 72 h. The assay was terminated by the addition of cold TCA and the cells were stained with 0.4% sulforhodamine B (SRB) in 1% acetic acid. Bound stain was subsequently solubilized with 10 mM trizma base, and the absorbance was read on an automated plate reader at a wavelength of 560 nm. Growth inhibition was determined by dividing the average Optical Density (OD) of the triplicated treated cultures by the average OD of the triplicate control cultures treated with DMSO solvent only. This ratio was converted into a percentage by multiplying by 100. The potency (concentration required to induce half of the maximal activity—GI50) were derived from dose-response graphs generated with results from 3 to 5 individual experiments using GraphPad Software.

[2] = system: ovarian carcinoma organotypic cultures; assay: Organotypic culture model of ovarian tumors; type: cell-based, human; details: 1 μM retinoid in media; 3, 7 or 14 days
Procedure: FIG. 17. Retinoid effects on ovarian carcinoma organotypic cultures. Organotypic cultures of OVCAR-3 (A, B, E, F, I and J), Caov-3 (C and G), SK-OV-3 (D and H), and O2 (K and L) were grown in the absence (−, top row and K) or presence (+, middle row and I, J and L) of retinoid HetA4 at a concentration of 1 μM in the media. All sections were stained with H&E except for I, which was stained with PAS to detect glycoproteins and glandular differentiantion, and J, which was stained with the TUNEL assay to detect apoptosis. All magnifications are 40×.
To test our hypotheses, we evaluated the effects of clinically achievable concentrations of 4-HPR and Flex-Hets on growth, differentiation and apoptosis in ovarian tissue. A series of compounds with a variety of receptor activation profiles were evaluated. In order to evaluate therapeutic effects, we developed an organotypic culture model of ovarian tumors by growing established cell lines and primary cultures inside collagen gels. Monolayer cultures of cells are not accurate representations of in vivo tissue because they lack the types of interactions that cells have with other cells and with the extracellular matrix in vivo. These interactions are known to influence gene expression and thus the constitution and behavior of cells. In our organotypic model, the growth of tumor cells inside the collagen allows a representation of tumors that have invaded stromal tissue. In the presence of fibroblasts, established cell lines and primary cultures of ovarian cancer formed colonies inside the collagen, while normal or benign ovarian epithelial cells remained as single cells inside the collagen. Human ovarian cancer cell lines (OVCAR-3, Caov-3, SK-OV-3, A2780, UCI 101) and primary human cultures (borderline ovarian tumor (O1), serous papillary tumor (O2), benign ovarian cyst (O3)) were cultured inside and on top of a collagen gel seeded with 3T3 fibroblasts for one week. After further incubation in the presence or absence of 1 μM retinoid (media concentration) for 3, 7 or 14 days, cultures were fixed and sectioned for immunohistochemical analysis.

[3] = system: Raldh2 −/− embryos; assay: Rescue of Raldh2 −/− embryos and teratogenesis; type: in vivo, mouse; details: for No. of −/− unrescued / Teratogenesis (no. of embryos) / No. of −/− rescued: E10.25 embryos
Procedure: Dosages varied from 0.025 to 25 mg/kg.

[4] = system: SiHa human cervical cell line; assay: In vitro cytotoxicity (SRB growth inhibition) assay, SiHa; type: cell-based; design: dose or concentration left out as unconfirmed; details: 72 h
Procedure: as §1

[5] = system: HT-3 cervical carcinoma cell line; assay: In vitro cytotoxicity (SRB growth inhibition) assay, HT-3; type: cell-based, human; design: dose or concentration left out as unconfirmed; details: 72 h
Procedure: as §1

[6] = system: CC-1 human cervical cell line; assay: In vitro cytotoxicity (SRB growth inhibition) assay, CC-1; type: cell-based; design: dose or concentration left out as unconfirmed; details: 72 h
Procedure: as §1

[7] = system: dorsal skin of female Skh hairless mice; assay: Topical irritancy; type: in vivo; details: topical on dorsal skin for 4 days; 2-log concentration dose range
Procedure: Female Skh hairless mice, 6-8 weeks old, were treated topically on the dorsal skin for 4 days over a 2-log concentration dose range with various compounds. Retinoic acid receptor-Hets were evaluated in A, while retinoic acid receptor-independent Flex-Hets were evaluated in B. Daily flaking and abrasion scores were combined to calculate a single cutaneous toxicity score for each mouse. Each treatment group consisted of 4 mice, and group averages were used to plot cutaneous toxicity against doses of the compounds.
Topical irritancy was evaluated according to published procedures (29). Briefly, female Skh hairless mice, 6-8 weeks old, were treated topically on the dorsal skin for 4 days over a 2-log concentration dose range with various compounds. Daily flaking and abrasion scores were combined to calculate a single cutaneous toxicity score for each mouse. Each treatment group consists of 4 mice, and group averages are used to plot cutaneous toxicity against dose of the retinoid compound.

[8] = system: OVCAR-3 xenograft tumors; assay: OVCAR-3 xenograft tumor animal model, tumor growth; type: in vivo, mouse; details: 10 mg/kg/day by gavage, 5 days/week, 4 weeks; t-test on day 29
Procedure: Groups of 5 mice bearing OVCAR-3 xenografted tumors were gavaged daily with the indicated drugs in sesame oil (▪ closed square) or with sesame oil alone (∘ open circle). Tumor volumes were measured in 3 dimensions with calipers weekly. Each data point represents the average and standard error of the tumor volumes on the indicated treatment day relative to the tumor volume on day zero. Nu/nu mice were injected subcutaneously with one million OVCAR-3 cells and arbitrarily divided into five groups of six mice each. After three weeks of tumor growth, the animals were gavaged with sesame oil, 10 mg/kg/day 4-HPR, or the indicated Het five times per week for four weeks and the tumors were measured once per week. The tumor sizes were averaged and divided by the average size for each group on the day that treatment was initiated (day 0).
The OVCAR-3 cultures were maintained in RPMI media supplemented with 10% fetal bovine serum. All animal experimentation described in this manuscript was conducted in accord with accepted standards of humane animal care. Twenty-five female NU/NU CD-1 female mice (Charles Rivers Laboratories) were housed in a laminar flow room under sterile conditions at 83-85° F. The mice were quarantined for one week prior to the beginning of the study and were allowed access to autoclaved food (Purina 5001 mouse/rat sterilizable diet, St. Louis, Mo.) and water ad libitum. OVCAR-3 cells in log phase growth were harvested by trypsinization, resuspended in RPMI culture medium, and centrifuged at 3,000 rpm for 10 min. The pellets were resuspended in RPMI culture medium at a concentration of 7×10^6 cells/ml before implantation into mice. Animals were injected with 3.5×10^6 cells into the right scapular region with a 24-gauge needle/1 cc tuberculin syringe. Twenty-four hours after tumor implantation, animals were randomized into 5 groups of 5 animals each.
The Hets SHet50, SHetA2 and SHetA4 were synthesized and their receptor specificity determined as previously described (17,19). The 4-HPR compound was a gift from R.W. Johnson Pharmaceutical Research Institute, Raritan, N.J. All retinoids were dissolved in super refined sesame oil (Croda, Inc., Parsippany, N.J.) and stored at −80° C. Since the retinoids are light sensitive, all manipulations involving retinoids were performed under subdued lighting. […] Tumors were measured with calipers weekly, and tumor volumes were calculated using the formula: volume=length×width×height. Tumor growth was determined by the dividing the volume of the tumor at each weekly measurement by the volume on the first day of treatment. Animal weights and clinical signs of overall health status and cutaneous toxicities were recorded weekly.

[9] = Alanine aminotransferase (ALT) activity in plasma of mice; type: in vivo, mouse; details: end of treatment, 10 mg/kg/day by gavage
Procedure: At the end of the treatment period, blood was drawn from each animal. Plasma was separated by centrifugation and stored at −70° C. The activity of ALT was determined in aliquots of plasma by standard spectrophotometric enzymatic techniques which are based on the reduction of pyruvate by lactate dehydrogenase (28). The method measures NADH disappearance with time of incubation at 37° C. The activities are expressed as mm/L/min. Two different amounts of plasma were used in each assay to assure measurement of the maximum rate.

[10] = dose 2.5 mg/kg oral to pregnant mice
[11] = dose 10 mg/kg oral to pregnant mice
[12] = dose 25 mg/kg oral to pregnant mice
[13] = dose 0.025 mg/kg oral to pregnant mice
[14] = dose 0.25 mg/kg oral to pregnant mice
[15] = dose 0.5 mg/kg oral to pregnant mice
[16] = dose 1.0 mg/kg oral to pregnant mice

CC1=C(/C=C/C(C)=C\C=C\C(C)=C\C(=O)O)C(C)(C)CCC1 [9-cis-RA, 9-cis-retinoic acid]
Efficacy: percent growth inhibition relative to the untreated control [1]: 45% | induction of apoptosis (TUNEL) in organotypic cultures [2]: Apoptosis was induced | rescue of Raldh2 −/− embryos (phenotype) ([3]; 2.5 mg/kg to pregnant mothers): partial rescue | No. of −/− unrescued [3, 10]: 8 | Teratogenesis (no. of embryos) [3, 10]: 0 | No. of −/− rescued [3, 11]: 6 | No. of −/− unrescued [3, 11]: 1 | Teratogenesis (no. of embryos) [3, 11]: 0 | Efficacy: percent growth inhibition relative to the untreated control [4]: 24% | Efficacy: percent growth inhibition relative to the untreated control [5]: 47% | Efficacy: percent growth inhibition relative to the untreated control [6]: 28%

CC1(C)CCOc2ccc(C(=O)Oc3ccc(C=NNC(N)=S)cc3)cc21 [OHet72]
topical irritancy (cutaneous toxicity score) [7]: did not induce topical irritancy | rescue of Raldh2 −/− embryos (phenotype) ([3]; 2.5 mg/kg to pregnant mothers): no rescue | rescue of Raldh2 −/− embryos (phenotype) ([3]; 10 or 25 mg/kg to pregnant mothers): no rescue | teratogenesis in litters ([3]; any dosage (2.5, 10, 25 mg/kg)): no teratogenesis was observed | No. of −/− rescued [3, 10]: 0 | No. of −/− unrescued [3, 10]: 4 | Teratogenesis (no. of embryos) [3, 10]: 0 | No. of −/− rescued [3, 11]: 0 | No. of −/− unrescued [3, 11]: 3 | Teratogenesis (no. of embryos) [3, 11]: 0 | No. of −/− rescued [3, 12]: 0 | No. of −/− unrescued [3, 12]: 5 | Teratogenesis (no. of embryos) [3, 12]: 0

CCOC(=O)c1ccc(OC(=O)c2ccc3c(c2)C(C)(C)CCN3C(C)C)cc1 [NHet17]
topical irritancy (cutaneous toxicity score) [7]: induced topical irritancy scores in a dose-responsive manner

CC(Cc1ccc(C(=O)O)cc1)c1ccc2c(c1)C(C)(C)CS2 (stereo not drawn) [SHet100]
rescue of Raldh2 −/− embryos (phenotype) ([3]; 0.25 mg/kg to pregnant mothers): partial rescue | rescue of Raldh2 −/− embryos (phenotype) ([3]; 0.5 mg/kg to pregnant mothers): typical rescue phenotype | teratogenesis in litter ([3]; 2.5 mg/kg to pregnant mothers): teratogenic for all embryos in a litter | No. of −/− rescued [3, 13]: 0 | No. of −/− unrescued [3, 13]: 2 | Teratogenesis (no. of embryos) [3, 13]: 0 | No. of −/− unrescued [3, 14]: 0 | Teratogenesis (no. of embryos) [3, 14]: 0 | No. of −/− rescued [3, 15]: 6 | No. of −/− unrescued [3, 15]: 1 | Teratogenesis (no. of embryos) [3, 15]: 0 | Teratogenesis (no. of embryos) [3, 10]: 11

CC1=C(/C=C/C(C)=C/C=C/C(C)=C/C(=O)O)C(C)(C)CCC1 [All-trans-RA]
No. of −/− rescued [3, 16]: 0 | No. of −/− unrescued [3, 16]: 7 | Teratogenesis (no. of embryos) [3, 16]: 0 | No. of −/− rescued [3, 10]: 13 | No. of −/− unrescued [3, 10]: 1 | Teratogenesis (no. of embryos) [3, 10]: 0

COC(=O)c1ccc(C(=O)Nc2ccc3c(c2)C(C)(C)CC(C)(C)S3)cc1 [SHet50, reference compound]
Efficacy: percent growth inhibition relative to the untreated control [1]: 67% | induction of apoptosis (TUNEL) in organotypic cultures [2]: Apoptosis was induced | Efficacy: percent growth inhibition relative to the untreated control [4]: 35% | growth of xenograft tumors versus sesame oil control [8]: significantly inhibited the growth; also recorded: significantly less | Efficacy: percent growth inhibition relative to the untreated control [5]: 47% | ALT Activity [9]: 65.5 ± 46.3 mm/liter/min | Efficacy: percent growth inhibition relative to the untreated control [6]: 15%

CC(C=CC=C(C)c1ccc2c(c1)C(C)(C)CS2)=CC(=O)O [SHet65]
topical irritancy (cutaneous toxicity score) [7]: induced topical irritancy scores in a dose-responsive manner
